According to patent US10736922B2, “High telomerase activity bone marrow mesenchymal stem cells, methods of producing the same and pharmaceuticals and treatment methods based thereon” (UNIVERSITY OF SOUTHERN CALIFORNIA, priority 2010, dated 2020):
Values belong to the molecule of their own block, whether it stands above or below them.

What was measured:
[1] = test system: telomerase; assay: Telomerase activity, TeloTAGGG Telomerase PCR ELISA kit, mouse BMMSC cultures; format: cell-based
Method: (§1) Inhibitor treatment. tBMMSCs and BMMSCs were treated with 1 mM L-NMMA (Cayman Chemical) or 0.2 mM 1400 W (Cayman Chemical) to inhibit total NOS or iNOS, respectively. Aspirin 50 μg/ml (TAT) and telomerase inhibitor III (1 μM; EMD Chemicals) were used to activate and suppress telomerase activity in cultured BMMSCs, respectively. CHIRON 99021 (1 or 10 μM; Chiron Corporation) and Dickkopf 1 (DKK1, 10 ng/ml, R&D Systems) were used as an activator and inhibitor to regulate β catenin levels in BMMSCs.
Measurement of telomerase activity. The Telomerase activity was measured using TeloTAGGG Telomerase PCR ELISA kit (Roche).

[2] = test system: NO production in BMMSCs; assay: Measurement of nitric oxide production in BMMSC culture supernatant; format: cell-based, mouse
Method: as §1
Measurement of nitric oxide production. BMMSCs (0.2×10^6/well) were cultured on 24-well plates with or without cytokines (IFNγ, 25 ng/ml; IL-1β, 5 ng/ml, R&D Systems) and chemicals (L-NMMA, 1 mM; 1400W, 0.2 mM; aspirin, 50 μg/ml; Telomerase inhibitor III, 1 μM; CHIRON 99021, 1 or 10 μM; DKK1, 10 ng/ml) at indicated concentration and days. The same chemical concentration was also used in combination treatment such as DKK and aspirin or Telomerase inhibitor and CHIRON99021. The supernatant from each culture was collected and measured nitric oxide concentration using Total Nitric Oxide and Nitrate/Nitrite Parameter Assay kit (R&D Systems) according to manufacturer's instruction.

[3] = test system: active β-catenin; assay: Western blot of active beta-catenin in BMMSCs; format: cell-based, mouse
Method: (§2) Western blotting analysis. […] of protein were used and SDS-PAGE and western blotting were performed according to standard procedures. β-actin on the same membrane served as the loading control.
as §1

[4] = biological target: T1, iNOS (Mus musculus, UniProt P29477); assay: Western blot of iNOS expression; format: cell-based; conditions: BMMSCs and tBMMSCs, L-NMMA 1 mM or 1400W 0.2 mM, 3 days
T1 construct: endogenous in cells; host or cells: primary BMMSCs and tBMMSCs
T1 sequence (P29477 1-1144): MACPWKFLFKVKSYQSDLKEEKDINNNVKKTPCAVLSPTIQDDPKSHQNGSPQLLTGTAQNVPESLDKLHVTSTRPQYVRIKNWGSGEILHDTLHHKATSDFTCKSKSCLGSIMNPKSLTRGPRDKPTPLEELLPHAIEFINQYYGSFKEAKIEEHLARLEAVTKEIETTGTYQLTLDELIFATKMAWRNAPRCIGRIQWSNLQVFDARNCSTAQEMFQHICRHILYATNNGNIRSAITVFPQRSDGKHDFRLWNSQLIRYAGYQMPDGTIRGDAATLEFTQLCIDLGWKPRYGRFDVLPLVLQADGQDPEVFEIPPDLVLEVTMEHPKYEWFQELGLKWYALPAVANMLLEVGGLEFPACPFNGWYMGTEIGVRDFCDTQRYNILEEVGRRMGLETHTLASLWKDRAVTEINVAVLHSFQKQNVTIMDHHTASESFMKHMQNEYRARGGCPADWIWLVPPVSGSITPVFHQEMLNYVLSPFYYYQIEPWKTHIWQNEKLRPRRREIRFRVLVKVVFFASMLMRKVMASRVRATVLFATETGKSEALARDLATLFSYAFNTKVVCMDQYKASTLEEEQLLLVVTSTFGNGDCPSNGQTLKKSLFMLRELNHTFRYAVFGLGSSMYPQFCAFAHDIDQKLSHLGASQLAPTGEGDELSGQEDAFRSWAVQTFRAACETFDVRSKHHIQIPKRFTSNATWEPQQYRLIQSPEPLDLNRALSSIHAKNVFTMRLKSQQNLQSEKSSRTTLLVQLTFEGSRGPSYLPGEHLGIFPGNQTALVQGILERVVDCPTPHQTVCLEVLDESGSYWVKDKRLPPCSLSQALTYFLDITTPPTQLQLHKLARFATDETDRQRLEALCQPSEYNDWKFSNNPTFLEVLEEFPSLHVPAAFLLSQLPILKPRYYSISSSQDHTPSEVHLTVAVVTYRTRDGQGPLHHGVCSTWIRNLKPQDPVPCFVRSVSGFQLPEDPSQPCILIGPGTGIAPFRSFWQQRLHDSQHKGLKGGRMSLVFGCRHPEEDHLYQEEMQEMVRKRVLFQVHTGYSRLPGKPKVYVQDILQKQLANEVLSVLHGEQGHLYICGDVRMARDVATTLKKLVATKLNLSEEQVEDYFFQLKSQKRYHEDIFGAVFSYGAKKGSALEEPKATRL
Method: as §2, §1

[5] = test system: activated SP cells; assay: Cell survival assay, Transwell co-culture with activated splenocytes (cell counting kit-8); format: cell-based, mouse; conditions: for tBMMSC / BMMSC effect on cell viability of activated SP cells: L-NMMA 1 mM or 1400W 0.2 mM in co-culture
Method: (§3) Cell apoptosis and cell survival assay. Transwell system (Corning) was used for co-culture experiments. 0.2×10^6 of tBMMSCs or BMMSCs were seeded on each lower chamber. In the upper chambers, activated splenocytes (1×10^6/chamber), which were pre-stimulated with plate-bounded anti CD3ε antibody (5 μg/ml) and soluble anti CD28 antibody (2 μg/ml) for 3 days, were loaded. Both chambers were filled with a complete medium containing Dulbecco's Modified Eagle Medium (DMEM, Lonza) with 10% heat-inactivated FBS, 50 μM 2-mercaptoethanol, 10 mM HEPES, 1 mM sodium pyruvate (Sigma), 1% non-essential amino acid (Cambrex), 2 mM L-glutamine, 100 U/ml penicillin and […] streptomycin. To measure the splenocyte viability, cell counting kit-8 (Dojindo Molecular Technoloies) were used. For apoptosis of splenocyte analysis, Annexin V-PE apoptosis detection kit I (BD Bioscience) were used and analyzed on FACS^Calibur (BD Bioscience).

[6] = test system: activated SP cells; assay: Cell apoptosis assay, Transwell co-culture with activated splenocytes (Annexin V/7AAD); format: cell-based, mouse; conditions: for number of early and late apoptotic SP cells in tBMMSC and regular BMMSC groups: L-NMMA 1 mM or 1400W 0.2 mM in co-culture
Method: as §3

[7] = test system: CD4^+CD25^+Foxp3^+ Tregs; assay: In vitro CD4+CD25+Foxp3+ Tregs induction; format: cell-based, mouse; conditions: L-NMMA 1 mM or 1400W 0.2 mM
Method: In vitro CD4^+CD25^+Foxp3^+Tregs induction. CD4^+CD25^− T-lymphocytes (1×10^6/well), collected by CD4^+CD25^+ regulatory T-cell Isolation kit (Miltenyi Biotec), were pre-stimulated with plate bounded anti CD3E antibody (5 μg/ml) and soluble anti CD28 antibody (2 μg/ml) for 3 days. These activated T-lymphocytes were loaded on 0.2×10^6 of BMMSC or tBMMSC cultures with recombinant human TFGβ1 (2 μg/ml) (R&D Systems) and recombinant mouse IL2 (2 μg/ml) (R&D Systems). After 3 days, cells in suspension were collected and stained with anti CD4-PerCP, anti CD8a-FITC, anti CD25-APC antibodies (each 1 μg) for 45 min on ice under dark condition. And then cells were stained with anti Foxp3-PE antibody (1 μg) using Foxp3 staining buffer kit (eBioscience) for cell fixation and permeabilization. The cells were analyzed on FACS^Calibur (BD Bioscience).

[8] = test system: telomerase; assay: Telomerase activity in human BMMSCs, Telo TAGGG Telomerase PCR ELISA kit; format: cell-based; conditions: aspirin in culture medium at 2.5 μg/ml or 50 μg/ml for 1 week
[9] = test system: telomerase reverse transcriptase (TERT); assay: Western blot of TERT expression; format: cell-based, mouse; conditions: aspirin treatment, one week
Method: as §2

[10] = test system: CD73, Sca-1, Oct4, SSEA4, CD34, CD45; assay: Flow cytometric analysis of mesenchymal stem cell surface molecules; format: cell-based, mouse; conditions: aspirin treatment
Method: Flow cytometric analysis of mesenchymal stem cell surface molecules. BMMSCs or pBMMSCs (0.2×10^6) were incubated with 1 µg of PE conjugated antibodies or isotype-matched control IgGs (Southern Biotech) at 4° C. for 45 min. Samples were analyzed by FACS^Calibur flow cytometer (BD Bioscience). For dual color analysis, the cells were treated with PE conjugated and FITC conjugated antibodies or isotype-matched control IgGs (each 1 […]g). The cells were analyzed on FACS^Calibur (BD Bioscience).

[11] = L-NMMA 1 mM or 1400W 0.2 mM, 3 days
[12] = BMMSCs treated with aspirin (TAT) prior to co-culture

Telomerase activity in BMMSCs ([1]; Chiron treatment, 7 days): elevated telomerase activity
Molecule: Cc1cnc(-c2cnc(NCCNc3ccc(C#N)cn3)nc2-c2ccc(Cl)cc2Cl)[nH]1 [Chiron 99021]
NO production in BMMSCs ([2]; Chiron 1 and 10 μM, 1 week): up-regulated NO production in BMMSCs in a dose-dependent manner | active beta-catenin in BMMSCs ([3]; Chiron 99021, 7 days): elevation of active beta-catenin in a dose-dependent manner

Molecule: CNC(=N)NCCC[C@H](N)C(=O)O [L-NMMA, NG-monomethyl-L-arginine]
NO production in BMMSCs [2, 11]: inhibit NO production | iNOS expression [4]: inhibited | tBMMSC / BMMSC effect on cell viability of activated SP cells [5]: significantly block tBMMSC, but not regular BMMSC, induced cell viability | number of early and late apoptotic SP cells in tBMMSC and regular BMMSC groups [6]: significantly reduced | BMMSC- and tBMMSC-induced up-regulation of Tregs [7]: inhibit

iNOS expression [4]: inhibited
Molecule: CC(=N)NCc1cccc(CN)c1 [1400W]
NO production in BMMSCs [2, 11]: inhibit NO production | tBMMSC / BMMSC effect on cell viability of activated SP cells [5]: significantly block tBMMSC, but not regular BMMSC, induced cell viability | inhibition of early apoptotic SP cells, tBMMSC group compared to regular BMMSC group ([6]; 1400W 0.2 mM): significantly greater inhibition | number of early and late apoptotic SP cells in tBMMSC and regular BMMSC groups [6]: significantly reduced | BMMSC- and tBMMSC-induced up-regulation of Tregs [7]: inhibit

Molecule: DKK1: Wnt inhibitor, Dickkopf 1 (R&D Systems)
aspirin (TAT)-induced telomerase activity in BMMSCs ([1]; DKK1 10 ng/ml, DKK-TAT): capable of blocking | aspirin-induced NO production in BMMSCs ([2]; DKK1 10 ng/ml added prior to aspirin (TAT) treatment, three days): significantly block | activated β-catenin level in BMMSCs ([3]; DKK1 10 ng/ml): reducing activated β-catenin level

Telomerase activity in BMMSCs ([1]; regular BMMSCs cultured with aspirin (50 μg/ml) for one week): significantly elevated
Molecule: CC(=O)Oc1ccccc1C(=O)O [aspirin]
Telomerase activity in human BMMSCs [8]: significantly increased level of telomerase activity | NO production in BMMSCs ([2]; regular BMMSCs cultured with aspirin for one week): significantly elevated | telomerase reverse transcriptase (TERT) expression in BMMSCs [9]: significantly elevated | DKK1-induced down-regulation of activated beta-catenin ([3]; aspirin (TAT) treatment): partially block | CD34 expression in BMMSCs [10]: elevates CD34 expression | BMMSC-induced reduction of activated SP cell viability [5, 12]: promote BMMSC-induced reduction of activated SP cell viability | BMMSC-induced early and late apoptosis of activated SP cells [6, 12]: elevation of early and late apoptosis
